Measurements reported in patent US20230183293A1, “METHODS OF TREATING OR PREVENTING CORONAVIRUS INFECTION” (priority 2021, published 2023).
Read-outs that look alike come from different tables or passages of the source.

Legend:
[1] = system: SARS-CoV-2 virions; conditions: 2 h at 37° C., below the limit of detection
[2] = system: SARS-CoV-2; test: CPE reduction assay in Vero E6 cells with pharmaceutical formulations (Example 8); format: cell-based; conditions: for inhibitory / antiviral effect in CPE reduction assay: FIGS. 7D-7E
[3] = system: SARS-CoV-2; test: CPE reduction assay in Vero E6 cells with pharmaceutical formulations dissolved in DMSO (Example 6); format: cell-based; conditions: Severe acute respiratory syndrome coronavirus 2, Vero C1008, 72 h; Vero E6, MOI 0.015, three days, pharmaceutical formulation in DMSO, estimated concentrations; read-out: EC50, inhibition of virus-induced cell death
[4] = Binding to plastic labware (coated or uncoated 96-well plates), remaining concentration by LC-MS/MS (Example 12); format: physicochemical; conditions: plastic labware
Experimental: Plastic labware was coated with three different coating agents: 100 mg/ml bovine serum albumin in PBS (BSA; Sigma), 1% polyethylene glycol 3350 in MilliQ water (PEG-3350; Sigma) and 0.2% polysorbate 40 in MilliQ water (Tween40; Fluka). In addition, the plastic materials with VCS by treating them with a 500 mM VCS solution in DMSO (Sigma). Labware, including all tubes, tips and culture plastics, was filled with blocking solution and incubated for 2 h at room temperature with rocking to homogenously coat the surfaces. After rinsing twice with MilliQ water, the items were left to dry at room temperature until further use in experiments. Solutions of 0.2 and 2 μM of VCS were prepared in EMEM-2% FCS and 100 μl of each VCS solution was incubated in coated 96-well plates. After a 2 h incubation at 37° C. the remaining VCS concentration was measured by validated LC-MS/MS.

[5] = system: SARS-CoV-2; conditions: HuH7.5, Calu-3 and Vero cells; Dittmar et al.; cited from earlier work
[6] = system: SARS-CoV-2; test: microbe, parasite or virus in culture; format: cell-based
[7] = Phase 2b study in de novo kidney transplant recipients (Example 3); format: in vivo, human; conditions: for blood trough level: standard dose 0.05 mg/kg BID
Experimental: De novo kidney transplant recipients were enrolled into a 6 month, Phase 2b, multi-center, randomized, open-label study. […] In addition, all subjects received induction immunosuppression with intravenous daclizumab or basiliximab (dosed per product labeling) and received concomitant treatment during the study with MMF and corticosteroids. […] Adverse reactions were recorded and renal graft rejection was assessed based on Banff classification. At 3-month and 6-month time points, adverse reactions were analyzed. Graft survival and patient survival were also recorded at the 6-month time point.

[8] = system: Calu-3 cells; conditions: plastic, Calu-3, FIG. 6D
[9] = system: Vero E6 cells; conditions: Vero E6, 3 days
[10] = system: SARS-CoV-2; test: microbe, parasite or virus in culture; format: cell-based; conditions: Severe acute respiratory syndrome coronavirus 2, Vero C1008; solutions prepared from pure powder; read-out: EC50, inhibition of SARS-CoV-2 in Vero E6 cells
[11] = system: SARS-CoV-2; format: cell-based; conditions: 3.2 μM, glass labware, Calu-3, 24 h p.i., FIG. 6A

SMILES: CCO [50% ethanol, ethanol]
- amount of infectious SARS-CoV-2 remaining [1]: < 100 PFU/ml

SMILES: CO[C@H]1C[C@@H]2CC[C@@H](C)[C@@](O)(O2)C(=O)C(=O)N2CCCC[C@H]2C(=O)O[C@H]([C@H](C)C[C@@H]2CC[C@@H](OCCO)[C@H](OC)C2)CC(=O)[C@H](C)/C=C(\C)[C@@H](O)[C@@H](OC)C(=O)[C@H](C)C[C@H](C)/C=C/C=C/C=C/1C [EVL, everolimus]
- inhibitory / antiviral effect in CPE reduction assay [2]: did not show an inhibitory effect

SMILES: COc1c(C)c2c(c(O)c1C/C=C(\C)CCC(=O)OCCN1CCOCC1)C(=O)OC2 [MMF, mycophenolate mofetil]
- inhibitory / antiviral effect in CPE reduction assay [2]: apparent antiviral effect

SMILES: COc1c(C)c2c(c(O)c1C/C=C(\C)CCC(=O)O)C(=O)OC2 [mycophenolate, mycophenolic acid]
- EC50 [3]: 3.1 µM

SMILES: C=CC[C@@H]1/C=C(\C)C[C@H](C)C[C@H](OC)[C@H]2O[C@@](O)(C(=O)C(=O)N3CCCC[C@H]3C(=O)O[C@H](/C(C)=C/[C@@H]3CC[C@@H](O)[C@H](OC)C3)[C@H](C)[C@@H](O)CC1=O)[C@H](C)C[C@@H]2OC [tacrolimus, reference compound]
- Conc ([4]; 0.8 μM stock solution, 0 h): 850 nM
- % rem ([4]; 0.8 μM stock solution, 2 h): 76%
- Conc ([4]; 0.8 μM stock solution, 2 h): 650 nM
- loss by binding to plastic ([4]; 2 h): 24%
- activity on SARS-CoV-2 replication in a previous report [5]: no activity
- EC50 ([6]; Severe acute respiratory syndrome coronavirus 2, Vero C1008, FIG. 1C, Vero E6 CPE reduction, read-out: EC50 inhibition of SARS-CoV-2): ~25 µM
- protection of infected cells from virus-induced cytopathic effects ([6]; dosages up to 25 μM): did not protect
- blood trough level ([7]; months 0-3): 7 to 20 ng/mL
- blood trough level ([7]; months 0-6 as printed): 5 to 15 ng/mL
- Nankivell eGFR ([7]; standard dose group): 69 mL/min
- Graft survival ([7]; standard dose, 6 month): 97.7%
- NODAT (new onset of diabetes after transplant) incidence ([7]; standard dose, 6 month): 16.4%
- Patient survival ([7]; standard dose, 6 month): 97.7%
- NODAT (new onset of diabetes after transplant) incidence ([7]; standard dose, 6 month, listed as Tacrolimus): 16.4%
- Central BPAR (biopsy proven acute rejection), patients (incidence) ([7]; standard dose, N = 86, 6 month post-transplantation): 5 (5.8%)
- cytotoxicity [8]: did not display much cytotoxicity
- EC50 ([2]; Severe acute respiratory syndrome coronavirus 2, Vero C1008, 72 h, Vero E6, 3 days, read-out: EC50, inhibition of virus-induced cell death): 10 ± 1 µM
- concentration after which compound-related cytotoxicity was observed [9]: above 25 μM
- concentration after which compound-related cytotoxicity was observed ([9]; listed as Tacrolimus): > 25000 nM
- EC50 [10]: ~15 µM
- EC50 [3]: 12 µM
- reduction in SARS-CoV-2 infectious progeny titers [11]: ~0.5 log
